Experimental data: paper PMC8060220, “Comparative study of hyperpure chlorine dioxide with two other irrigants regarding the viability of periodontal ligament stem cells” (Clinical Oral Investigations, 2020)
Marks after values point to notes of the source that are not given here.

Key:
[1] = tested on: PDLSCs; assay: Impedimetry (xCELLigence), 10 min treatment, time course and viability; assay type: cell-based, human; conditions: for long-term (2–120 h) effect on normalized CI / short-term (0–2 h) effect on normalized CI: 0.0025% and 0.00025% ClO2, 10 min treatment; for repopulation in long-term impedimetric analysis: 5-day-long period after treatment; for viability of PDLSC cultures, impedimetry: 48 h; for cells killed during the first 30 min: ClO2 depending on the concentration applied (0.0025%, 0.00025%); for normalized Cell Index (CI) two days after the treatment: 37 °C
Description: The effect of irrigative agents on the viability of the PDLSC cells was assessed using the xCELLigence SP System (Roche Applied Science, Indianapolis, IN, USA), which monitors the cellular events by measuring electrical impedance across interdigitating gold microelectrodes integrated on the bottom of tissue culture plates (E-plates). The detected impedance is influenced by the viability and morphology of the attached cells on the surface of the electrodes. The presence of cells due to their insulating plasma membranes constrain the electrical current and lead to an increase in the electrode impedance. The impedance depends on the number of the attached cells and on the dimensional change of the attached cells on the electrodes. More cells attached to the electrode or spreading cause a larger increase in the impedance. The change in impedances represented as “cell index” (CI) which is a relative and dimensionless value. Briefly, the experimental protocol was as follows: to register the background value, 100 μL of culture medium was added to each well and impedance was recorded for 1 h to gain constant background curves of impedance. In the following step, PDLSCs were seeded in 10^5 cells/mL density. After 24-h incubation, they were treated with the solutions of the investigated irrigative compounds (H2O2, CHX, and ClO2) for 10 min and the medium served as reference. […] Normalized impedance to the control calculated by the integrated software (RTCA 1.2—Roche Applied Science, Indianapolis, IN, USA) was used for the statistical evaluation. Each data point represents the mathematical average of three parallels.

[2] = tested on: gingival fibroblasts; design: method as in PMID 1920010; conditions: exposure of dental root surfaces to CHX (0.12%); cited from earlier work
[3] = tested on: STRO-1; assay: Immunocytochemistry of stem cell marker STRO-1; assay type: cell-based, human; conditions: 48 h
Description: (§1) PDLSC cultures grown in 8 chamber slides (Nunc Lab-Tek) were treated with the antiseptic agents similar to the viability studies. After 48 h, treated and untreated cell cultures were fixed in 4% PFA in PBS for 20 min at room temperature (RT). To block non-specific binding, 5% goat serum in PBS was applied for 1 h at RT. Then cell cultures were incubated with the primary antibodies diluted 1:100 with 2.5% goat serum in PBS overnight at 4 °C. The applied primary antibodies were the following: anti-STRO-1 antibody (type mouse IgM)—a generous gift from Prof. Richard Oreffo (University of Southampton, UK); anti-CD90 (Thy-1; type mouse IgG) and the anti-CD105 (endoglin; type mouse IgM) antibodies purchased from Calbiochem and Santa Cruz Biotechnology, respectively. Goat anti-mouse IgM and IgG type secondary antibodies conjugated with Alexa Fluor 488 (Molecular Probes) were diluted with 2.5% goat serum in PBS in 1:2000 and 1:1000 respectively. The incubation time was 60 min at RT. Finally, the walls of the chambers were removed and the slides were mounted with ProLong Gold antifade reagent with DAPI (Molecular Probes). Immunocytochemically labeled cell cultures were investigated under a fluorescence microscope (Nikon Eclipse E600), the photos were taken by a Retiga 2000R digital CCD camera (QImaging), and analyzed by the Image Pro software (Media Cybernetics). Free macros for automated fluorescence analysis of image processing software FIJI/ImageJ were applied to evaluate immunostaining of stem cell markers. Each test point represents 3 × 3 reading of the samples.

[4] = tested on: CD90; assay: Immunocytochemistry of stem cell marker CD90; assay type: cell-based, human; conditions: 48 h
Description: as §1

[5] = tested on: gingival fibroblasts; design: method as in PMID 10632519; conditions: cited from earlier work
[6] = tested on: CD105; assay: Immunocytochemistry of stem cell marker CD105; assay type: cell-based, human; conditions: 48 h
Description: as §1

[7] = tested on: PDLSCs; assay: Impedimetry (xCELLigence), concentration-response study; assay type: cell-based, human; conditions: 48-h incubation, 0.5 normalized CI
Description: (§2) To evaluate the concentration-dependent effects of the 3 antiseptic agents (H2O2, CHX, and ClO2), 9 different dilutions of each agent were prepared with growth medium (from 3.91 × 10^−6 to 10^−3 M, by 1:2 dilution in each step). As ClO2 is photosensitive and volatile, its dilution series were made in dark Eppendorf tubes which were opened only for the inevitably required time. After a 48-h-long incubation, cell viability was assessed by WST-1 test and impedimetric measurement, respectively (see below). The […] (IC50) values corresponding to the 50% viable cells or 0.5 normalized CI were determined from the concentration-effect curves in the case of the two methods, respectively.
The effect of irrigative agents on the viability of the PDLSC cells was assessed using the xCELLigence SP System (Roche Applied Science, Indianapolis, IN, USA), which monitors the cellular events by measuring electrical impedance across interdigitating gold microelectrodes integrated on the bottom of tissue culture plates (E-plates). The detected impedance is influenced by the viability and morphology of the attached cells on the surface of the electrodes. The presence of cells due to their insulating plasma membranes constrain the electrical current and lead to an increase in the electrode impedance. The impedance depends on the number of the attached cells and on the dimensional change of the attached cells on the electrodes. More cells attached to the electrode or spreading cause a larger increase in the impedance. The change in impedances represented as “cell index” (CI) which is a relative and dimensionless value. Briefly, the experimental protocol was as follows: to register the background value, 100 μL of culture medium was added to each well and impedance was recorded for 1 h to gain constant background curves of impedance. […] The viability of the PDLSC was monitored for 96 h. Normalized impedance to the control calculated by the integrated software (RTCA 1.2—Roche Applied Science, Indianapolis, IN, USA) was used for the statistical evaluation. […]

[8] = tested on: PDLSCs; assay: WST-1 test, concentration-response study; assay type: cell-based, human; conditions: 48-h incubation, 50% viable cells
Description: as §2
(§3) This assay is dedicated to measuring the viability of PDLSCs. In 96-well culture plates, 10,000 PDLSCs were seeded. After 24 h, samples were treated with the irrigative compounds, and final concentrations were H2O2 0.3%, CHX 0.02%, and ClO2 0.0025% and 0.00025% solutions in 4-4 parallel wells. After 10 min, all the irrigative agents were removed and the samples were washed three times with normal growth medium, simulating the diluting effect of saliva in the oral cavity during the periodontal treatments. Forty-eight hours after the treatments, the cell viability was measured by the cell proliferation reagent containing water-soluble tetrazolium salt, WST-1 [2-(4-Iodophenyl)-3-(4-nitrophenyl)-5-(2,4-disulfophenyl)-2H-tetrazolium] (Roche). This assay determines mitochondrial dehydrogenase enzyme activity resulting water-soluble cleavage product. The WST-1 reagent was used at 1:20 dilution and incubation time was 2 h at 37 °C. Absorbance was measured at 450 nm with a reference wavelength of 655 nm by a microplate reader (BIO-RAD Model 3550). Background control values were determined in wells seeded with no cells. Each value represents the average of minimum 3 parallel measurements.

[9] = tested on: equine fibroblasts; conditions: cited from earlier work
[10] = tested on: PDL cells; design: method as in PMID 1507037; conditions: 0.2 to 2.0% CHX pretreatment of the root surface; cited from earlier work
[11] = tested on: PDLSC cultures; assay: Morphological study, phase-contrast microscopy; assay type: cell-based, human; conditions: for cell morphology and cell number under phase-contrast microscope: 48 h after treatment, 0.3% H2O2, 0.02% CHX, 0.0025% or 0.00025% ClO2
Text: Cellular morphology was observed under an inverted phase-contrast microscope (Nikon TMS). Photomicrographs were taken applying a high-performance CCD camera (COHU) and the Scion image software.

[12] = tested on: PDLSCs; assay: WST-1 viability assay, 10 min treatment; assay type: cell-based, human; conditions: P3 and P7, 48 h
Description: as §3

[13] = tested on: human gingival fibroblasts; design: method as in PMID 1962413; conditions: cited from earlier work
[14] = tested on: bacteria; design: method as in PMID 24060558, PMID 23529300; conditions: direct antibacterial and biofilm-dissolving effects; cited from earlier work
[15] = tested on: Escherichia coli; design: method as in ref 1 (supplement); conditions: 1 µm diameter cylindrical bacterium; c0 = 300 mg/L (4.45 mM); formula (C), pig bladder parameters; ref 1 (supplement); cited from earlier work
[16] = design: method as in ref S1; conditions: ref S1, cited from earlier work
[17] = long incubation time; cited from earlier work
[18] = P3 and P7, 0.3% H2O2, 0.02% CHX
[19] = impedimetric results, 0.02% CHX
[20] = P3, 0.02% CHX, 0.0025% (1/1) ClO2
[21] = P7, 0.02% CHX, 0.0025% (1/1) ClO2
[22] = 0.3% H2O2, 0.02% CHX, higher ClO2 concentration (0.0025%)

[H]/N=C(\N/C(=N/[H])NCCCCCCNC(=N)NC(=N)Nc1ccc(Cl)cc1)Nc1ccc(Cl)cc1 [CHX, chlorhexidine]
long-term (2–120 h) effect on normalized CI ([1]; 0.3% H2O2, 0.02% CHX): retained their short-term cytotoxic effects | short-term (0–2 h) effect on normalized CI ([1]; 0.3% H2O2, 0.02% CHX): rapid decrease of normalized CI profile | repopulation in long-term impedimetric analysis [1]: no sign of repopulation | viability of PDLSC cultures, impedimetry [1, 18]: significantly deteriorating effects | cells killed in 5 min [1, 19]: 50% | cells killed during the first 30 min [1, 19]: about 70% | subsequent attachment of gingival fibroblasts [2]: significantly inhibited | STRO-1 Fluo. int. [%] Control = 100% [3, 20]: 130.52* % | STRO-1 Fluo. int. [%] Control = 100% [3, 21]: 86.02% | CD90 Fluo. int. [%] Control = 100% [4, 20]: 199.23*** % | CD90 Fluo. int. [%] Control = 100% [4, 21]: 30.98*** % | low concentration shown to be toxic, reducing production of collagen and non-collagen proteins [5]: 0.0001% | CD105 Fluo. int. [%] Control = 100% [6, 20]: 218.18*** % | CD105 Fluo. int. [%] Control = 100% [6, 21]: 104.81% | IC50 ([7]; Homo sapiens, 48 h): 36.4 µM | IC50 [8]: 16.6 µM | IC50 ([8]; Homo sapiens, 48 h): 29.5 µM | concentration with 50% of survival [9]: 0.005% | attachment of PDL cells onto the root surface and their morphology [10]: adversely altered | cell morphology and cell number under phase-contrast microscope [11]: number of cells dramatically decreased | viability of PDLSC cultures, WST-1 [12, 22]: significantly deteriorating effects

[O][Cl+][O-] [ClO2, chlorine dioxide]
long-term (2–120 h) effect on normalized CI ([1]; 0.3% H2O2, 0.02% CHX): consistent increase of the curves | short-term (0–2 h) effect on normalized CI ([1]; 0.3% H2O2, 0.02% CHX): significantly less toxic compared to the other two antiseptic substances | repopulation in long-term impedimetric analysis [1]: proliferation of the remaining cell population can compensate cell loss | normalized Cell Index (CI) two days after the treatment ([1]; 10 minute treatment in 2.5 mg/l ClO2 solution): ≈ 0.8 | normalized Cell Index (CI) two days after the treatment ([1]; 10 minute treatment in 25 mg/l ClO2 solution): about 0.5 | viability of PDLSC cultures, impedimetry ([1]; P3, higher ClO2 concentration (0.0025%)): significant inhibitory effect | viability of PDLSC cultures, impedimetry ([1]; P3 and P7, lower ClO2 concentration (0.00025%)): unequivocally neutral | cells killed during the first 30 min [1, 19]: 20–30% | LD50 ([13]; human gingival fibroblasts): 0.16 mM | apoptotic responses ([13]; low concentrations of ClO2): did not induce apoptotic responses | STRO-1 Fluo. int. [%] Control = 100% ([3]; P3, 0.00025% (1/10) ClO2): 145.78** % | STRO-1 Fluo. int. [%] Control = 100% [3, 20]: 216.52*** % | STRO-1 Fluo. int. [%] Control = 100% ([3]; P7, 0.00025% (1/10) ClO2): 114.69% | STRO-1 Fluo. int. [%] Control = 100% [3, 21]: 120.43* % | CD90 Fluo. int. [%] Control = 100% ([4]; P3, 0.00025% (1/10) ClO2): 159.23** % | CD90 Fluo. int. [%] Control = 100% [4, 20]: 83.07% | CD90 Fluo. int. [%] Control = 100% ([4]; P7, 0.00025% (1/10) ClO2): 54.92*** % | CD90 Fluo. int. [%] Control = 100% [4, 21]: 97.74% | times lower concentration of ClO2 needed to evoke the same or even stronger effect than that of CHX [14]: approximately 10 times | CD105 Fluo. int. [%] Control = 100% ([6]; P3, 0.00025% (1/10) ClO2): 127.80* % | CD105 Fluo. int. [%] Control = 100% [6, 20]: 213.90*** % | CD105 Fluo. int. [%] Control = 100% ([6]; P7, 0.00025% (1/10) ClO2): 15.74*** % | CD105 Fluo. int. [%] Control = 100% [6, 21]: 55.46*** % | IC50 [7]: 795 µM | IC50 [8]: 638 µM | toxicity compared with CHX ([9]; equine fibroblasts): less toxic to equine fibroblasts than CHX | killing time (TKILL) [15]: 4.4 ms | diffusion coefficient D(pig bladder) ([16]; cellular pig bladder tissue): 1.8×10^–6 cm^2s^–1 | diffusion coefficient D(gelatine) ([16]; unstructured gelatine gel medium): 2.4×10^–6 cm^2s^–1 | cell morphology and cell number under phase-contrast microscope [11]: did not provoke morphological changes | viability of PDLSC cultures, WST-1 [12, 22]: no effect | viability of PDLSC cultures, WST-1 ([12]; lower ClO2 concentration (0.00025%)): unequivocally neutral

OO [H2O2, hydrogen peroxide]
long-term (2–120 h) effect on normalized CI ([1]; 0.3% H2O2, 0.02% CHX): retained their short-term cytotoxic effects | short-term (0–2 h) effect on normalized CI ([1]; 0.3% H2O2, 0.02% CHX): rapid decrease of normalized CI profile | viability of PDLSC cultures, impedimetry [1, 18]: complete lack of any viable cells | time to kill all the cells ([1]; impedimetric results, 0.3% H2O2): ≤ 1 min | concentrations at which in vitro sporicide effects are evident [17]: 10–30% | IC50 [7]: 327 µM | IC50 [8]: 209 µM | state of cultures at fixation for immunocytochemistry ([11]; 48 h after treatment with H2O2): all the cells were dead and detached from the slide | cell morphology and cell number under phase-contrast microscope [11]: number of cells dramatically decreased | viability of PDLSC cultures, WST-1 [12, 22]: complete lack of any viable cells
